Laboratory results published in patent publication US12227509B2, “Dihydropyrazolopyrazinone derivative having MGAT2 inhibitory activity” (Shionogi & Co., Ltd., priority 2019, dated 2025).

Key:
CYP3A4 = CYP3A4 (Homo sapiens (Human), UniProt P08684); experiment: CYP3A4 (MDZ) MBI test; assay type: in vitro ADME; details: pooled human liver microsomes; midazolam 1-hydroxylation; preincubation 0 vs 30 min
Protocol: CYP3A4 (MDZ) MBI test is a test of investigating mechanism based inhibition (MBI) potential on CYP3A4 by the enhancement of inhibitory degree of a metabolic reaction caused by the compound of the present invention. CYP3A4 inhibition was evaluated using pooled human liver microsomes by 1-hydroxylation reaction of midazolam (MDZ) as a marker reaction.
The reaction conditions are as follows: substrate, 10 μmol/L MDZ; pre-reaction time, 0 or 30 minutes; substrate reaction time, 2 minutes; reaction temperature, 37° C.; protein content of pooled human liver microsomes, at pre-reaction time 0.5 mg/mL, at reaction time 0.05 mg/mL (at 10-fold dilution); concentrations of the compound of the present invention, at pre-reaction time 1, 5, 10, 20 μmol/L (four points).
Pooled human liver microsomes and a solution of the compound of the present invention in K-Pi buffer (pH 7.4) as a pre-reaction solution were added to a 96-well plate at the composition of the pre-reaction. A part of pre-reaction solution was transferred to another 96-well plate, and 1/10 diluted by K-Pi buffer containing a substrate. NADPH as a co-factor was added to initiate a reaction as a marker reaction (without pre-reaction). After a predetermined time of a reaction, methanol/acetonitrile=1/1 (V/V) solution was added to stop the reaction. In addition, NADPH was added to a remaining pre-reaction solution to initiate a pre-reaction (with pre-reaction). After a predetermined time of a pre-reaction, a part was transferred to another plate, and 1/10 diluted by K-Pi buffer containing a substrate to initiate a reaction as a marker reaction. After a predetermined time of a reaction, methanol/acetonitrile=1/1 (V/V) solution was added in order to stop the reaction. The plate on which each index reaction had been performed was centrifuged at 3000 rpm for 15 minutes, and thereafter 1-hydroxylated midazolam in the supernatant was quantified by LC/MS/MS.
The sample adding DMSO as a solvent to a reaction system instead of a solution dissolving the compound of the present invention was adopted as a control (100%). Remaining activity (%) was calculated at each concentration of the compound of the present invention compared to a control, and IC value was calculated by reverse-presumption by a logistic model using a concentration and an inhibition rate. IC at Preincubation 0 min/IC at Preincubation 30 min was defined as a value of Shifted IC, and a case that Shifted IC was 1.5 or more was regarded as Positive, and a case that Shifted IC was 1.0 or less was regarded as Negative.

hERG (IKr) = hERG (IKr) (Homo sapiens (Human), UniProt Q12809); experiment: hERG test; assay type: cell-based; details: CHO cells expressing hERG channel, pH 7.4, 10 μmol/L of test compound, read-out: % inhibition of hERG tail peak current (IKr)
Chain of hERG (IKr) (Q12809 whole entry): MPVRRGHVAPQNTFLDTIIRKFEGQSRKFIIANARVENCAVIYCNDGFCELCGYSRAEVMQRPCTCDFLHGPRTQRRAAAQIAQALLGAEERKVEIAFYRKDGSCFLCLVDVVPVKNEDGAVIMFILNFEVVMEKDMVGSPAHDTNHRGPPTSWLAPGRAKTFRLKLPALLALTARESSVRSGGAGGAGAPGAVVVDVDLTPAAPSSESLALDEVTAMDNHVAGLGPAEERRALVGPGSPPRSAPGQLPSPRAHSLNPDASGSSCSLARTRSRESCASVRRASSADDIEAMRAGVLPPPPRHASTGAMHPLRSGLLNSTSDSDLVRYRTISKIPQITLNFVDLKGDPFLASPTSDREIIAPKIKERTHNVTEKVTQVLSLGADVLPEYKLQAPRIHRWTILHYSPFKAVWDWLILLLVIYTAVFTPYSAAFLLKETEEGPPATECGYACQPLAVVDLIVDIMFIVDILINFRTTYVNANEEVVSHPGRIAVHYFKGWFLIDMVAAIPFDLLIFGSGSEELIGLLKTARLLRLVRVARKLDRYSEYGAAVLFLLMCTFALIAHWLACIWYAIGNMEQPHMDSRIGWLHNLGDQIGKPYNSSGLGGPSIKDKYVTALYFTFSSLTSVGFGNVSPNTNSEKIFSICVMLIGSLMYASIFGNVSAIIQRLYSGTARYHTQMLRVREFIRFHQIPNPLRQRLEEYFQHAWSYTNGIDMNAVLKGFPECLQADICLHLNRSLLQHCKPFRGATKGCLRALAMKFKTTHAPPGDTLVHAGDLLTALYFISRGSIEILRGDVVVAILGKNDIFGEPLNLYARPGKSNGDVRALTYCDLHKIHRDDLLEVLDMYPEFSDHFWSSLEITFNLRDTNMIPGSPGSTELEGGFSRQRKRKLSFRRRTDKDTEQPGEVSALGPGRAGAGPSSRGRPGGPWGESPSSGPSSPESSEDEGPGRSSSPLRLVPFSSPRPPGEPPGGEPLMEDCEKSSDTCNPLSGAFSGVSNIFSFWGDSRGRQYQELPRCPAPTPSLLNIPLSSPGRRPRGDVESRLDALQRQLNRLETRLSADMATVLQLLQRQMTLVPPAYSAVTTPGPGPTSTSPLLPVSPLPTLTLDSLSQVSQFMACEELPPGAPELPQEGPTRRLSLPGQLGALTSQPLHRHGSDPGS
Description: For the purpose of assessing risk of an electrocardiogram QT interval prolongation of the compound of the present invention, effects of the compound of the present invention on delayed rectifier K^+ current (IKr), which plays an important role in the ventricular repolarization process, was studied using CHO cells expressing human ether-a-go-go related gene (hERG) channel.
After a cell was retained at a membrane potential of −80 mV by whole cell patch clamp method using an automated patch clamp system (QPatch; Sophion BIoscience A/S), IKr induced by application of a leak potential of −50 mV followed by depolarization pulse stimulation at +20 mV for 2 seconds and, further, repolarization pulse stimulation at −50 mV for 2 seconds, was recorded. […] From the recording IKr, an absolute value of the tail peak current was measured based on the current value at the resting membrane potential using analysis software (Falster Patch; Sophion Bioscience A/S). Further, the % inhibition of tail peak current for the compound of the present invention relative to the tail peak current after application of the vehicle is calculated to assess influence of the compound of the present invention on IKr.

recombinant human MGAT2 = recombinant human MGAT2 (Homo sapiens (Human), UniProt Q3SYC2); experiment: Measurement of human MGAT2 inhibitory activity; assay type: biochemical; details: concentration exhibiting 50% enzyme inhibition; recombinant human MGAT2, 2-Oleoylglycerol/Oleoyl-CoA
Chain of recombinant human MGAT2 (Q3SYC2 whole entry): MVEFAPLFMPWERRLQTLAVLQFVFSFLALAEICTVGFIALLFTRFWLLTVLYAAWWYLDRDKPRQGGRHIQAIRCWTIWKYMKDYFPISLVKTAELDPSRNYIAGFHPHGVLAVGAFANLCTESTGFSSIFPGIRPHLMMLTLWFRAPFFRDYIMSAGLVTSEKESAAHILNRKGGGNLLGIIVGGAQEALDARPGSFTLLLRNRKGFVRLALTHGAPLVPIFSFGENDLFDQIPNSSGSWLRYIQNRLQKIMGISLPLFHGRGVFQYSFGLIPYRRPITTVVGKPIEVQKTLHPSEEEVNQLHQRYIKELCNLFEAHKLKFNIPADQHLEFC
Outline: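 Membrane fraction of baculovirus-infected Sf-9 cells expressing N-terminally Flag-tagged full-length human MGAT2, in 100 mmol/L phosphate pH 7.4 with 2 mmol/L DTT. The substrate solution held 30 μmol/L 2-oleoylglycerol and 10 μmol/L oleoyl-CoA. After 1 h at room temperature, diolein/diolein-d5 ratio was read by ESI Q-TOF MS and % inhibition derived against enzyme and no-enzyme controls.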

Chain of CYP3A4 (P08684 whole entry): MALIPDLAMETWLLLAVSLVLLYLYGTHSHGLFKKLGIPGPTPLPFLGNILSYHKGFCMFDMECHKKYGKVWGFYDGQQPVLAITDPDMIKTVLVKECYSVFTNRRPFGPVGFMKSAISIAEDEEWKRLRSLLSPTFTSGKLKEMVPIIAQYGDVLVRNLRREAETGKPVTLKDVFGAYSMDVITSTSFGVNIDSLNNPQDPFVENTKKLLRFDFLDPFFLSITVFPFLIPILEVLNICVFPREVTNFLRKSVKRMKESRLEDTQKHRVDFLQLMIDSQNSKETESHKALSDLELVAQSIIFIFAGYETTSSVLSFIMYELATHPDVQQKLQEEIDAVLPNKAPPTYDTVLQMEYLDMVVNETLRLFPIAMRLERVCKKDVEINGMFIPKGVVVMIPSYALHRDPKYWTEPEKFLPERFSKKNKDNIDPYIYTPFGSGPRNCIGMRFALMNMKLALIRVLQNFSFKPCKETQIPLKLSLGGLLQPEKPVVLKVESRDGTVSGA

Compound	CYP3A4 (MDZ) MBI (Shifted IC judgement) (CYP3A4)	inhibition at 10 min, 10 μmol/L (hERG (IKr)) [%]	IC50 (recombinant human MGAT2) [nM]
Cc1ccc(-c2nn3c(c2NC(=O)CS(C)(=O)=O)C(=O)N[C@@]2(CCc4cc(OCC(F)(F)F)ccc42)C3)nc1 [Compound I-6]	Negative (a case that Shifted IC was 1.0 or less was regarded as Negative)	–	–
N#Cc1ccc(-c2nn3c(c2NC(=O)CC(F)(F)F)C(=O)N[C@@]2(CCc4cc(OCC(F)(F)F)ccc42)C3)nc1 [Compound I-14]	Negative (a case that Shifted IC was 1.0 or less was regarded as Negative)	25.5	46.1
Cc1ccc(-c2nn3c(c2NC(=O)CS(C)(=O)=O)C(=O)N[C@@]2(CCc4cc(OCC(F)(F)F)ccc42)C3)cc1 [Compound I-20]	Negative (a case that Shifted IC was 1.0 or less was regarded as Negative)	27.8	–
CS(=O)(=O)CC(=O)Nc1c(CCC2CC2)nn2c1C(=O)N[C@@]1(CCc3cc(OCC(F)(F)F)ccc31)C2 [Compound I-46]	Negative (a case that Shifted IC was 1.0 or less was regarded as Negative)	–	–
CS(=O)(=O)CC(=O)Nc1c(CCC(F)(F)F)nn2c1C(=O)N[C@@]1(CCc3cc(OCC(F)(F)F)ccc31)C2 [Compound I-58]	Negative (a case that Shifted IC was 1.0 or less was regarded as Negative)	–	–
